Results from ChEMBL document CHEMBL4017450, “Synthesis and carbonic anhydrase inhibition of a series of SLC-0111 analogs” (Bioorg Med Chem, 2017).

Legend:
[1] = target: Carbonic anhydrase 9 (Homo sapiens, UniProt Q16790)
Description: Inhibition of human recombinant carbonic anhydrase 9 preincubated for 15 mins prior to testing measured for 10 to 100 secs by phenol red-based stopped-flow CO2 hydration assay

[2] = target: Carbonic anhydrase 12 (Homo sapiens, UniProt O43570); assay: Inhibition of human recombinant carbonic anhydrase 12 preincubated for 15 mins prior to testing measured for 10 to 100 secs by phenol red-based stopped-flow CO2 hydration assay
[3] = target: Carbonic anhydrase 2 (Homo sapiens, UniProt P00918); assay: Inhibition of human recombinant carbonic anhydrase 2 preincubated for 15 mins prior to testing measured for 10 to 100 secs by phenol red-based stopped-flow CO2 hydration assay

Sequence of Carbonic anhydrase 12 (O43570 whole entry): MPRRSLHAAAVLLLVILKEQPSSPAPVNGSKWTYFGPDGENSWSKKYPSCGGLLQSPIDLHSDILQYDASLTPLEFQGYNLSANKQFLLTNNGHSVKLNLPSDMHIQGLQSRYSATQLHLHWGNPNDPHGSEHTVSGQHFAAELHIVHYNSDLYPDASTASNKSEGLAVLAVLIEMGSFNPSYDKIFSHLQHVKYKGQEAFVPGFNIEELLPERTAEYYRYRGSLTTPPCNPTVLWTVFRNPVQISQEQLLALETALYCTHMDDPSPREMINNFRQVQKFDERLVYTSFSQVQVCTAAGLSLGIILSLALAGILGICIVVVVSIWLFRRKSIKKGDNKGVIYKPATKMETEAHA

| Ki [1] | Ki [2] | Ki [3] | Structure (SMILES) |
| --- | --- | --- | --- |
| 5.1 nM | – | – | NS(=O)(=O)c1ccc(NC(=O)Nc2ccc(Cl)cc2F)cc1 |
| 154 nM | – | – | NS(=O)(=O)c1cccc(NC(=O)Nc2cccc([N+](=O)[O-])c2)c1 |
| 7.4 nM | – | – | NS(=O)(=O)c1ccc(NC(=O)Nc2cc(C(F)(F)F)ccc2F)cc1 |
| 8.9 nM | – | – | NS(=O)(=O)c1ccc(NC(=O)Nc2cc(Cl)ccc2Cl)cc1 |
| 178 nM | – | – | CC(=O)c1ccc(NC(=O)Nc2cccc(S(N)(=O)=O)c2)cc1 |
| 116 nM | – | – | NS(=O)(=O)c1cccc(NC(=O)Nc2ccc(I)cc2)c1 |
| 162 nM | – | – | NS(=O)(=O)c1cccc(NC(=O)Nc2c(F)c(F)c(F)c(F)c2F)c1 |
| 8.4 nM | 8.5 nM | 10 nM | NS(=O)(=O)c1ccc(NC(=O)Nc2cccc(Cl)c2)cc1 |
| 8.2 nM | – | – | NS(=O)(=O)c1ccc(NC(=O)Nc2cc([N+](=O)[O-])ccc2Cl)cc1 |
| 9.6 nM | – | – | NS(=O)(=O)c1ccc(NC(=O)Nc2ccc(F)c(F)c2F)cc1 |
| 219 nM | – | – | NS(=O)(=O)c1cccc(NC(=O)Nc2ccc(F)cc2)c1 |
| 349 nM | – | – | CC(C)c1ccccc1NC(=O)Nc1cccc(S(N)(=O)=O)c1 |
| 7.7 nM | – | – | NS(=O)(=O)c1ccc(NC(=O)Nc2ccccc2F)cc1 |
| 7.6 nM | – | – | NS(=O)(=O)c1ccc(NC(=O)Nc2cc(F)c(F)cc2F)cc1 |
| 3.7 nM | – | – | NS(=O)(=O)c1ccc(NC(=O)Nc2ccc(F)cc2F)cc1 |
